3 compounds from patent US9040519B2, “Fused tetracyclic pyrido [4,3-B] indole and pyrido [3,4-B] indole derivatives and methods of use” (Medivation Technologies, Inc., priority 2010, dated 2015) can be followed below.

Each structure is given as a SMILES string.

Test [1] has as its target T1, rat adrenergic α1A receptor (Rattus norvegicus, UniProt P43140).
T1 construct: rat adrenergic α1A receptor obtained from Wistar Rat submaxillary glands; from tissue; host or cells: Wistar rat submaxillary glands
T1 sequence (P43140 1-466): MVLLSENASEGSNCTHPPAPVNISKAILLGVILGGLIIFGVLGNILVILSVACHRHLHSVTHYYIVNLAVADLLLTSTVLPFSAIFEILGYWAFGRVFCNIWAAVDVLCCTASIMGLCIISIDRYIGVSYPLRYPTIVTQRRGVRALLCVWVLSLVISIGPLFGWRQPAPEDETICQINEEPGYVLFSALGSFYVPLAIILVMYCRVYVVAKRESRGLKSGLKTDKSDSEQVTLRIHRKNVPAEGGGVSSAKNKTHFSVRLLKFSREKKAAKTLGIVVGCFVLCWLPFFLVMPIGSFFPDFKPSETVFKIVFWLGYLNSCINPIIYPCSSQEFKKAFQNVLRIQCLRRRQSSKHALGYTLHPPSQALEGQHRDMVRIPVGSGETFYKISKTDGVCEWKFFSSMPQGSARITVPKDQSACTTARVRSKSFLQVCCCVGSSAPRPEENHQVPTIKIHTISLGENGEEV
Description: Adrenergic α1A radioligand binding ([3H]Prazosin). To be noted: compound at 0.1 μM; Wistar Rat submaxillary glands; read-out: Percentage inhibition of ligand binding, Adrenergic α1A. As for the experimental part: To evaluate in radioligand binding assays the activity of compounds of the invention, rat adrenergic α1A receptor obtained from Wistar Rat submaxillary glands (Michel, A. et al, Br. J. Pharmacol. 98:883, 1989) in a modified Tris-HCl buffer (50 mM Tris-HCl buffer, pH 7.4, 0.5 mM EDTA) was used. Compounds of the invention were incubated with 0.25 nM [^3H]Prazosin for 60 min at 25° C. Non-specific binding was estimated in the presence of 10 μM phentolamine. Receptor proteins were filtered and washed, the filters were then counted to determine [^3H]Prazosin specifically bound. Compounds of the invention were screened at 1 μM or lower, using 1% DMSO as vehicle. Biochemical assay results are presented as the percent inhibition of specific binding in Table 3.

Test [2] has as its target T2, human recombinant serotonin (5-Hydroxytryptamine) 5-HT2A receptor (Homo sapiens, UniProt P28223).
T2 construct: expressed in transfected cells; host or cells: CHO-K1
Kind of test: Serotonin 5-HT2A radioligand binding ([3H]Ketanserin). The conditions noted are these: compound at 0.1 μM; CHO K1 cells; read-out: Percentage inhibition of ligand binding, Serotonin 5-HT2A. As for the experimental part: To evaluate in radioligand binding assays the activity of compounds of the invention, human recombinant serotonin (5-Hydroxytryptamine) 5-HT2A receptor expressed in Chinese hamster ovary (CHO) K1 cells (Bonhaus, D. et al, Br. J. Pharmacol. 115:622, 1995; Saucier, C. et al, J. Neurochem. 68:1998, 1997) in a 50 mM Tris-HCl buffer, pH 7.4, was used. Compounds of the invention were incubated with 0.5 nM [^3H]Ketanserin for 60 min at 25° C. Non-specific binding was estimated in the presence of 1 μM Mianserin. Receptor proteins were filtered and washed, the filters were then counted to determine [^3H]Ketanserin specifically bound. Compounds were screened at 1 μM or lower, using 1% DMSO as vehicle. Biochemical assay results are presented as the percent inhibition of specific binding in Table 4.

Test [3] has as its target T3, human recombinant dopamine D2L receptor (Homo sapiens, UniProt P14416).
T3 construct: expressed in transfected cells; host or cells: CHO
Kind of test: Dopamine D2L radioligand binding ([3H]Spiperone). The conditions noted are these: compound at 1 μM; CHO cells; read-out: Percentage inhibition of ligand binding, Dopamine D2L. As for the experimental part: To evaluate in radioligand binding assays the activity of compounds of the invention, human recombinant dopamine D2L receptor expressed in Chinese hamster ovary (CHO) cells (Grandy, D. et al, Proc. Natl. Acad. Sci. USA. 86:9762, 1989; Hayes, G. et al, Mol. Endocrinol. 6:920, 1992) in a modified Tris-HCl buffer (50 mM Tris-HCl, pH 7.4, 1.4 mM Ascorbic Acid, 0.001% BSA, 150 mM NaCl) was used. Compounds of the invention were incubated with 0.16 nM [^3H]Spiperone for 120 min at 25° C. Non-specific binding was estimated in the presence of 10 μM Haloperidol. Receptor proteins were filtered and washed, the filters were then counted to determine [^3H]Spiperone specifically bound. Compounds were screened at 1 μM or lower, using 1% DMSO as vehicle. Biochemical assay results are presented as the percent inhibition of specific binding in Table 3.

Test [4] concerns the target T4, human recombinant serotonin (5-Hydroxytryptamine) 5-HT7 receptor (Homo sapiens, UniProt P34969).
T4 construct: expressed in transfected cells; host or cells: CHO
Description: Serotonin 5-HT7 radioligand binding ([3H]LSD). To be noted: compound at 0.1 μM; CHO cells; read-out: Percentage inhibition of ligand binding, Serotonin 5-HT7. As for the experimental part:
To evaluate in radioligand binding assays the activity of compounds of the invention, human recombinant serotonin (5-Hydroxytryptamine) 5-HT7 receptor expressed in Chinese hamster ovary (CHO) cells (Roth, B. et al, J. Pharmacol. Exp. Ther. 268:1403, 1994; Shen, Y. et al, J. Biol. Chem. 268:18200, 1993) in a modified Tris-HCl buffer (50 mM Tris-HCl, pH 7.4, 10 mM MgCl2, 0.5 mM EDTA) was used. Compounds of invention were incubated with 5.5 nM [^3H] Lysergic acid diethylamide (LSD) for 2 h at 25° C. Non-specific binding was estimated in the presence of 10 μM Serotonin (5-HT). Receptor proteins were filtered and washed, the filters were then counted to determine [^3H]LSD specifically bound. Compounds were screened at 1 μM or lower, using 1% DMSO as vehicle. Biochemical assay results are presented as the percent inhibition of specific binding in Table 4.

T4 sequence (P34969 whole entry): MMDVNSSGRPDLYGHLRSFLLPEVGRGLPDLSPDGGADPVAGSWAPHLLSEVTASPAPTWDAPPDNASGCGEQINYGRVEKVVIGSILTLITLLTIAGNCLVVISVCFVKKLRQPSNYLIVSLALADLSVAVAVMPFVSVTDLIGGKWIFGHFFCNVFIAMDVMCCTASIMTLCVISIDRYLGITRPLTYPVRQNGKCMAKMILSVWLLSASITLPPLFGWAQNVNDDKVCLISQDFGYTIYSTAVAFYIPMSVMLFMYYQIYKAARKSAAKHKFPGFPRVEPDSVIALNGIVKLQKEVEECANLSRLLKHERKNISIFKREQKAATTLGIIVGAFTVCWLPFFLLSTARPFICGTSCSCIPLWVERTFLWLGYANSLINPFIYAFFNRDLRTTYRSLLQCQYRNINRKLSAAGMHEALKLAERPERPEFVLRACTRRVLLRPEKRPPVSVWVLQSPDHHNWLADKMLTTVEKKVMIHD
T3 sequence (P14416 whole entry): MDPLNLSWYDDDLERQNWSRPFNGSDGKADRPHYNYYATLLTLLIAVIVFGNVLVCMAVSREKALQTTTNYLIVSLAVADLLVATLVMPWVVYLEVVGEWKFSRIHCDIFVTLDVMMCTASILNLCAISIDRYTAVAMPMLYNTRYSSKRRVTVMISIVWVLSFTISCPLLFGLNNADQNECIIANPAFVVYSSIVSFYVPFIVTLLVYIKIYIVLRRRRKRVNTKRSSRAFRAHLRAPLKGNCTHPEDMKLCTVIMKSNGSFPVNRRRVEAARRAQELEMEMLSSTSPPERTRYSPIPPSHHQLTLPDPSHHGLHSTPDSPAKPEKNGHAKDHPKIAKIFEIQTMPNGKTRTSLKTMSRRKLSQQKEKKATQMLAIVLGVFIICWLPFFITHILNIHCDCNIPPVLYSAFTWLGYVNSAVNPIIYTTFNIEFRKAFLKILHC
T2 sequence (P28223 whole entry): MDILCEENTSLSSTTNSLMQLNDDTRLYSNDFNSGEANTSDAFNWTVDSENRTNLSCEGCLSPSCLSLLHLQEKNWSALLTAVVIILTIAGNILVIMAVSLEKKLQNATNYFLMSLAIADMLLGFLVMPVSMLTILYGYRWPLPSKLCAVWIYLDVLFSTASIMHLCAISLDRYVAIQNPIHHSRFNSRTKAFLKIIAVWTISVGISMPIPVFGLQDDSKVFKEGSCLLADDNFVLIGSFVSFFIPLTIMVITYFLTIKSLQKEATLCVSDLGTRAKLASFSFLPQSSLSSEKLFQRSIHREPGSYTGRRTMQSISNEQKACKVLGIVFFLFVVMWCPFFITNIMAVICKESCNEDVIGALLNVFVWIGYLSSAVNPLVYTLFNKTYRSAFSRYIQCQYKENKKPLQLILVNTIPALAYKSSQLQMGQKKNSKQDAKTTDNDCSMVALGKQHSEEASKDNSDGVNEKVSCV

For the compound `Cc1ccc2c(c1)c1c3n2C(c2ccccc2)=CCC3(C)CN(C)C1` (stereo not drawn) [Compound 10, 2,3a,10-trimethyl-6-phenyl-2,3,3a,4-tetrahydro-1H-indolo[3,2,1-ij][1,6]naphthyridine], the inhibition at 0.1 µM in test [1] was -4%; in test [2], 13%; in test [4] it was 12%. Also, the inhibition at 1 µM in test [3] was determined as 9%.

Regarding `Cc1ccc2c(c1)c1c3n2CC(c2ccncc2)=CCC3(C)CN(C)C1` (stereo not drawn) [Compound 11, 2,3a,10-trimethyl-6-pyridin-4-yl-1,2,3,3a,4,7-hexahydro-2,7a-diaza-cyclohepta[jk]fluorene], the inhibition at 0.1 µM was 25% in test [1], 10% in test [2] and -8% in test [4]. In test [3], the inhibition at 1 µM was 3%.

For `Cc1ccc2c(c1)c1c3n2C(c2ccccc2)CCC3(C)CN(C)C1` (stereo not drawn) [Compound 12, 2,3a,10-trimethyl-6-phenyl-2,3,3a,4,5,6-hexahydro-1H-indolo[3,2,1-ij][1,6]naphthyridine], the values for the inhibition at 0.1 µM in test [1], in test [2] and in test [4] were 12%, 12% and -17%, respectively. In addition, in test [3], the inhibition at 1 µM was 5%.
